Experimental data from patent US8394796B2, “Bicyclic pyrimidine PI3K inhibitor compounds selective for P110 delta, and methods of use” (Genentech, Inc., priority 2009, dated 2013).

How the values were obtained:
[1] = target: T1, p110δ/p85α (PI3K p110 delta) (Homo sapiens, UniProt O00329); test: PI3K isoform inhibition assay (fluorescence polarization PIP3 displacement; alternatively radiometric), p110 delta; format: biochemical; settings: for IC50: PI3K p110 delta binding IC50; for IC50 p110 alpha/IC50 p110 delta: delta/alpha selectivity: ratio of p110 alpha IC50 to p110 delta IC50
T1 construct: purchased Upstate Group, Millipore; Dundee, UK
Procedure: PI3K Isoform Inhibition Assay (p110 Alpha, Beta, Gamma, Delta: α, β, γ, δ)
PI3K enzymatic activity was assayed by measuring the amount of product phosphatidylinositol 3,4,5-phosphate (PIP3) formed from substrate 4,5 phosphatidylinositol 4,5-phosphate (PIP2) using a fluorescence polarization displacement assay. The decrease in fluorescence polarization of a fluorescent PIP3 probe is measured as it is displaced from a PIP3-binding protein GRP-1 detector by PI3K-catalyzed product. […] The kinase reactions were initiated by the addition of 40 ng/mL p110α/p85α, 300 ng/mL p110β/p85α, 40 ng/mL p110γ, or 40 ng/mL p110δ/p85α (Upstate Group, Millipore; Dundee, UK), and 10 μM PIP2 (Echelon Biosciences) to the wells. […] After 60 minutes of incubation at room temperature to allow equilibration of labeled and unlabeled PIP3 binding, the parallel and perpendicular components of the fluorescence emissions from each sample were measured at an excitation wavelength of 530 nm and an emission wavelength of 590 nm using an Envision fluorescent plate reader with a rhodamine filter (PerkinElmer Life and Analytical Sciences; Wellesley, Mass.). The assay is capable of detecting 0.1-2.0 μM PIP3 product. The IC50 values were obtained by fitting the dose-dependent inhibition data to a 4-parameter equation using Assay Explorer software (MDL, San Ramon, Calif.).
The Formula I compound was serially diluted in 100% DMSO. The kinase reaction was incubated for 1 h at room temperature, and the reaction was terminated by the addition of PBS. IC50 values were subsequently determined using sigmoidal dose-response curve fit (variable slope).
HT baculovirus expression system (GIBCO/BRL), and then purified for use in biochemical assays. The four Class I PI 3-kinases are cloned into baculovirus vectors as follows: […]

[2] = tested on: CD69 positive cells that are also CD20 positive, stimulated by anti-IgM, in human whole blood; test: CD69 whole blood assay (human whole blood, anti-IgM stimulated); format: cell-based; settings: concentration decreasing by 50% the percent CD69 positive of CD20 positive cells stimulated by anti-IgM, 20 hours, read-out: IC50 in the CD69 Whole Blood Assay
Procedure: Human blood is obtained from healthy volunteers, with the following restrictions: 1 week drug-free, non-smokers. Blood (approximately 20 mls to test 8 compounds) is collected by venipuncture into Vacutainer tubes with sodium heparin.
Solutions of Formula I compounds at 1000 or 2000 μM in PBS (20×), are diluted by three-fold serial dilutions in 10% DMSO in PBS for a nine point dose-response curve. An aliquot of 5.5 μl of each compound is added in duplicate to a 2 ml 96-well plate; 5.5 μl of 10% DMSO in PBS is added as control and no-stimulus wells. Human whole blood—HWB (100 μl) is added to each well. After mixing the plates are incubated at 37° C., 5% CO2, 100% humidity for 30 minutes. Goat F(ab′)2 anti-human IgM (10 μl of a […] solution, 50 μg/ml final) is added to each well (except the no-stimulus wells) with mixing and the plates are incubated for an additional 20 hours. At the end of the 20 hour incubation, samples are incubated with florescent labeled antibodies for 30 minutes, at 37° C., 5% CO2, 100% humidity. Include induced control, unstained and single stains for compensation adjustments and initial voltage settings. Samples are then lysed with Pharmingen Lyse according to the manufacturer's instructions. Samples are then transferred to a 96 well plate suitable to be run on the AMS 96 well system on the BD Calibur FACs machine. Data acquired and Mean Fluorescence Intensity values were obtained using Cell Quest Software. Results are initially analyzed by FACS analysis software (Flow Jo). […] The IC50 values are calculated by Activityl)ase using Xlfit version 3, equation 201.

T1 sequence (O00329 whole entry, canonical isoform): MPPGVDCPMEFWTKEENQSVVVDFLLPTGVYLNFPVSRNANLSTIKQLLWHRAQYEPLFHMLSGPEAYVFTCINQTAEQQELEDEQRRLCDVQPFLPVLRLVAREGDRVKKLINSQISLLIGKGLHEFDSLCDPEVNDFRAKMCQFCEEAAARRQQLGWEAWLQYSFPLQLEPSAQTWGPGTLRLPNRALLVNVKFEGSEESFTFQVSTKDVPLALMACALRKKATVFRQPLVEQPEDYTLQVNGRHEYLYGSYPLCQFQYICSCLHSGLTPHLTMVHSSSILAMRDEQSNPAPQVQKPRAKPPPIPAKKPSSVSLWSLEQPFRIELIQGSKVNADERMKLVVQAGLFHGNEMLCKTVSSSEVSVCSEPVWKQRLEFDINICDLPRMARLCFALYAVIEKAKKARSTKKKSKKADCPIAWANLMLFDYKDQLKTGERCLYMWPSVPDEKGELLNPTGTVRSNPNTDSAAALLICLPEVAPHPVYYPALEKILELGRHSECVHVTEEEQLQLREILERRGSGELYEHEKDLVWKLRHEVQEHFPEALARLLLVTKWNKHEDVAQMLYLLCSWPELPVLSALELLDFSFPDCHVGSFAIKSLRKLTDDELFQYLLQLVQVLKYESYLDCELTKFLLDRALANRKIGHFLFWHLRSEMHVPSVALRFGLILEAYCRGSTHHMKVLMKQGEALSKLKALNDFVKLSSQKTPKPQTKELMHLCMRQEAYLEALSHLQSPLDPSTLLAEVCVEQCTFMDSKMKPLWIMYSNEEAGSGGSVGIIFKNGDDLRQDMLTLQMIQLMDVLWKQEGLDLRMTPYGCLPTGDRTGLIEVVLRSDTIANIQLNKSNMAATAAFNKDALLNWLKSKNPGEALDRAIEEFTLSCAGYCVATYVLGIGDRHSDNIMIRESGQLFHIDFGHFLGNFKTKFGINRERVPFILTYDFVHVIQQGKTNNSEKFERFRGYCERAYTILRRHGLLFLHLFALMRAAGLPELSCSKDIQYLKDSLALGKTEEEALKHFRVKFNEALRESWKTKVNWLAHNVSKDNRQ
T1 sequence (P27986 whole entry partner, canonical isoform): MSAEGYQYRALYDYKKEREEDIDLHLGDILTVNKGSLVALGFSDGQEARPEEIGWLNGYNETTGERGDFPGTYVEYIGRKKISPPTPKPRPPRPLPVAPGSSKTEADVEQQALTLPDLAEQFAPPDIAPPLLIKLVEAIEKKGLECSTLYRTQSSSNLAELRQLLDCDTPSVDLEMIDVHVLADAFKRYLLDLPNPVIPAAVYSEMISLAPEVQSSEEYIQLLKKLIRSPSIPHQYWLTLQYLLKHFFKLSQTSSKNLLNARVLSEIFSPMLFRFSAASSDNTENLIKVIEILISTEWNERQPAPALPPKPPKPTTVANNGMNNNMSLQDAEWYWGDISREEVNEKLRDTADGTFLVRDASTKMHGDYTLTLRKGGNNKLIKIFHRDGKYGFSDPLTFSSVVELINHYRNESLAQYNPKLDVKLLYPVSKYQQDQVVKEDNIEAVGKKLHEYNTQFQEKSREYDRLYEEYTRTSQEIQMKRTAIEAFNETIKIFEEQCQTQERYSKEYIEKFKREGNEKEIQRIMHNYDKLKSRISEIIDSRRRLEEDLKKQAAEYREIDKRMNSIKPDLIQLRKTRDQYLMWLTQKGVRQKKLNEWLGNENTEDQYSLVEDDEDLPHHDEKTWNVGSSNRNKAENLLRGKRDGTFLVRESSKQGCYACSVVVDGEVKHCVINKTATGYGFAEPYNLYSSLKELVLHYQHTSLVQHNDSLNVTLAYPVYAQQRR

Compound | IC50 [1] | IC50 p110 alpha/IC50 p110 delta [1] | IC50 [2]
CC(C)(C(N)=O)N1CCN(Cc2nc3nc(-c4cccc5nccn45)nc(N4CCOCC4)c3s2)CC1 [Example 248, 2-(4-((5-(imidazo[1,2-a]pyridin-5-yl)-7-morpholinothiazolo[4,5-d]pyrimidin-2-yl)methyl)piperazin-1-yl)-2-methylpropanamide] | 42.9 nM | 35 | 
Cn1c(CN2CC(C3CCOCC3)C2)nc2c(N3CCOCC3)nc(-n3c(C4CC4)nc4ccccc43)nc21 [Example 499, 4-(2-(2-cyclopropyl-1H-benzo[d]imidazol-1-yl)-9-methyl-8-((3-(tetrahydro-2H-pyran-4-yl)azetidin-1-yl)methyl)-9H-purin-6-yl)morpholine] | 6.3 nM | 75 | 
COC(C)(C)C1CCN(Cc2nc3c(N4CCOCC4)nc(-c4c(C)oc5ccccc45)nc3n2C)CC1 [Example 200, 4-(8-((4-(2-methoxypropan-2-yl)piperidin-1-yl)methyl)-9-methyl-2-(2-methylbenzofuran-3-yl)-9H-purin-6-yl)morpholine] | 22.2 nM | 54 | 
CC(C)(C(N)=O)N1CCN(Cc2nc3c(N4CCOCC4)nc(-c4cncc5[nH]ccc45)nc3s2)CC1 [Example 131, 2-methyl-2-(4-((7-morpholino-5-(1H-pyrrolo[2,3-c]pyridin-4-yl)thiazolo[5,4-d]pyrimidin-2-yl)methyl)piperazin-1-yl)propanamide] | 1.3 nM | 32 | 
CC(C)c1nc2ccccc2n1-c1nc(N2CCOCC2)c2nc(-c3cccnc3)n(C)c2n1 [Example 676, 4-(2-(2-isopropyl-1H-benzo[d]imidazol-1-yl)-9-methyl-8-(pyridin-3-yl)-9H-purin-6-yl)morpholine] | 13.6 nM | 14 | 
CN(C)C1CCN(Cc2cc3nc(-n4ccc5cnccc54)nc(N4CCOCC4)c3s2)CC1 [Example 149, N,N-dimethyl-1-((4-morpholino-2-(1H-pyrrolo[3,2-c]pyridin-1-yl)thieno[3,2-d]pyrimidin-6-yl)methyl)piperidin-4-amine] | 6.9 nM | 30 | 
Cc1oc2ccccc2c1-c1nc(N2CCOCC2)c2nc(CN3CCN(C(C)(C)C(N)=O)CC3)sc2n1 [Example 211, 2-methyl-2-(4-((5-(2-methylbenzofuran-3-yl)-7-morpholinothiazolo[5,4-d]pyrimidin-2-yl)methyl)piperazin-1-yl)propanamide] | 9.7 nM | >300 | 
COc1cccc(-c2nc3c(N4CCOCC4)nc(-n4c(C(C)C)nc5ccccc54)nc3n2C)c1 [Example 683, 4-(2-(2-isopropyl-1H-benzo[d]imidazol-1-yl)-8-(3-methoxyphenyl)-9-methyl-9H-purin-6-yl)morpholine] | 31.7 nM | 23 | 
Cn1c(CN2CCC(C(C)(C)O)CC2)nc2c(N3CCOCC3)nc(-c3cnc(N)c4ccccc34)nc21 [Example 115, 2-(1-((2-(1-aminoisoquinolin-4-yl)-9-methyl-6-morpholino-9H-purin-8-yl)methyl)piperidin-4-yl)propan-2-ol] | 7.2 nM | 34 | 
c1cc(-c2nc(N3CCOCC3)c3sc(CN4CCC(N5CCOCC5)CC4)cc3n2)c2ccncc2c1 [Example 101, 4-(1-((2-(isoquinolin-5-yl)-4-morpholinothieno[3,2-d]pyrimidin-6-yl)methyl)piperidin-4-yl)morpholine] | 101 nM | 53 | 
CCc1nc2ccccc2n1-c1nc(N2CCOCC2)c2nc(CCN3CCOCC3(C)C)n(C)c2n1 [Example 535, 4-(2-(2-(2-ethyl-1H-benzo[d]imidazol-1-yl)-9-methyl-6-morpholino-9H-purin-8-yl)ethyl)-3,3-dimethylmorpholine] | 9.9 nM | 49 | 
Cn1c(CN2CCC(C(C)(C)O)CC2)nc2c(N3CCOCC3)nc(-c3n[nH]c4ccccc34)nc21 [Example 162, 2-(1-((2-(1H-indazol-3-yl)-9-methyl-6-morpholino-9H-purin-8-yl)methyl)piperidin-4-yl)propan-2-ol] | 14.6 nM | 191 | 
Cc1c(CN2CCN(C(C)(C)C(N)=O)CC2)sc2c(N3CCOCC3)nc(-c3cncc4[nH]ccc34)nc12 [Example 112, 2-methyl-2-(4-((7-methyl-4-morpholino-2-(1H-pyrrolo[2,3-c]pyridin-4-yl)thieno[3,2-d]pyrimidin-6-yl)methyl)piperazin-1-yl)propanamide] | 1.8 nM | 29 | 

Second part, the molecule after the results:

IC50 [1] | IC50 p110 alpha/IC50 p110 delta [1] | IC50 [2] | Compound
1.37 nM | 157 |  | CCc1nc2ccccc2n1-c1nc(N2CCOCC2)c2nc(CN3CCN(C(C)(C)CO)CC3)[nH]c2n1 [Example 489, 2-(4-((2-(2-ethyl-1H-benzo[d]imidazol-1-yl)-6-morpholino-9H-purin-8-yl)methyl)piperazin-1-yl)-2-methylpropan-1-ol]
 |  | 44.1 nM | CCc1nc2ccccc2n1-c1nc(N2CCOCC2)c2nc(CN3CCC(C4COC4)CC3)n(C)c2n1 [Example 314, 4-(2-(2-ethyl-1H-benzo[d]imidazol-1-yl)-9-methyl-8-((4-(oxetan-3-yl)piperidin-1-yl)methyl)-9H-purin-6-yl)morpholine]
 | 50 |  | CCc1nc2ccccc2n1-c1nc(N2CCOCC2)c2nc(CN3CCC(C(C)(C)O)CC3)[nH]c2n1 [Example 701, 2-(1-((2-(2-ethyl-1H-benzo[d]imidazol-1-yl)-6-morpholino-9H-purin-8-yl)methyl)piperidin-4-yl)propan-2-ol]
 |  | 22 nM | Cn1c(CN2CCN(C(C)(C)C)CC2)nc2c(N3CCOCC3)nc(-n3c(C4CC4)nc4ccccc43)nc21 [Example 403, 4-(8-((4-tert-butylpiperazin-1-yl)methyl)-2-(2-cyclopropyl-1H-benzo[d]imidazol-1-yl)-9-methyl-9H-purin-6-yl)morpholine]
 |  | 20.6 nM | Cc1nc2ccccc2n1-c1nc(N2CCOCC2)c2nc(CN3CCN(C(C)(C)C(N)=O)CC3)n(C)c2n1 [Example 406, 2-methyl-2-(4-((9-methyl-2-(2-methyl-1H-benzo[d]imidazol-1-yl)-6-morpholino-9H-purin-8-yl)methyl)piperazin-1-yl)propanamide]
9.4 nM | 14 |  | CCc1nc2ccccc2n1-c1nc(N2CCOCC2)c2nc(CC(=O)N3CCC(C(C)(C)O)CC3)sc2n1 [Example 549, 2-(5-(2-ethyl-1H-benzo[d]imidazol-1-yl)-7-morpholinothiazolo[5,4-d]pyrimidin-2-yl)-1-(4-(2-hydroxypropan-2-yl)piperidin-1-yl)ethanone]
0.589 nM | 140 |  | CCc1nc2ccccc2n1-c1nc(N2CCOCC2)c2nc(CC3CN(C4CCS(=O)(=O)CC4)C3)n(C)c2n1 [Example 501, 4-(2-(2-ethyl-1H-benzo[d]imidazol-1-yl)-9-methyl-8-((1-(tetrahydro-2H-(1,1-dioxo)-thiopyran-4-yl)azetidin-3-yl)methyl)-9H-purin-6-yl)morpholine]
1.45 nM | 150 |  | CCc1nc2ccccc2n1-c1nc(N2CCOCC2)c2nc(CN3C[C@@H]4C[C@H]3CN4C(C)(C)CO)n(C)c2n1 [Example 521, 2-((1S,4S)-5-((2-(2-ethyl-1H-benzo[d]imidazol-1-yl)-9-methyl-6-morpholino-9H-purin-8-yl)methyl)-2,5-diazabicyclo[2.2.1]heptan-2-yl)-2-methylpropan-1-ol]
